The values below come from patent US12605366B2, “Telmisartan for the treatment of hypertension in dogs” (BOEHRINGER INGELHEIM VETMEDICA GMBH, priority 2019, dated 2026).

One test has as its system dogs with hypertension. Description: Prospective, block-randomized, double-blind clinical trial: systolic blood pressure (SBP) in client-owned dogs with proteinuric CKD. The class given is in vivo, dog. Particulars: for Average of SBP day 0: baseline; for Average of SBP day 0 / Average of SBP % change day 30 / Average of SBP change day 30 / Average of SBP % change day 60 / Average of SBP change day 60 / Average of SBP % change day 90 / Average of SBP change day 90 / Average of SBP day 30 / Average of SBP day 60 / Average of SBP day 90: dogs hypertensive at day 0, no amlodipine; for Average of SBP % change day 30 / Average of SBP change day 30 / Average of SBP % change day 60 / Average of SBP change day 60 / Average of SBP % change day 90 / Average of SBP change day 90 / Average of SBP % change day 120 / Average of SBP change day 120: change from baseline; for Average of SBP % change day 120 / Average of SBP change day 120: the other drug (telmisartan or enalapril) added after SBP measurement on day 90; for course of average SBP during the period of treatment: up to day 90. From the text: A prospective, block-randomized, double-blind clinical trial has been carried out. Fifty-four client-owned dogs with persistent pathologic renal proteinuria have been recruited over a 2-year period.
Azotemic and non-azotemic dogs (N=54) with hypertensive and non-hypertensive CKD have been recruited prospectively from patients presented to the hospital. Dogs included as cases will have confirmed persistent pathologic renal proteinuria due to CKD; in order to be classified as such, fulfillment of the criteria described below will be required.
Abdominal ultrasound findings consistent with CKD (bilaterally small, irregular kidneys) and absence of renal neoplasia have also been documented.
Dogs with suspected or confirmed hyper-adrenocorticism and diabetes mellitus have been included if their disease is considered well controlled with medical therapy.
Once included in the study and based on the presence/degree of azotemia, dogs have been grouped according to the International Renal Interest Society (IRIS) classification scheme for CKD. Those classified as IRIS stages 2-4 (serum creatinine ≥1.4 mg/dL with inappropriately dilute urine [USG<1.030]) have been considered azotemic (AZ), and those classified as IRIS stage 1 (creatinine <1.4 mg/dL) have been considered non-azotemic (non-AZ). Within each of these two groups, dogs will then be stratified according to IRIS recommendations for arterial pressure (AP) substaging. According to this scheme, dogs with persistent average indirect arterial systolic BP<150 mm Hg will be classified as AP0 (minimal risk for target organ damage). Those with persistent average indirect arterial systolic BP≥150 mm Hg have been classified as AP1-3 (at risk for target organ damage). Four groups will thus be identified: • 1. AZ (IRIS Stages 2-4), IRIS substage AP1-3 3. non-AZ (IRIS Stage 1), IRIS substage AP1-3 • 2. AZ (IRIS Stages 2-4), IRIS substage AP0 4. non-AZ (IRIS Stage 1), IRIS substage AP0
Once placed into one of these four groups, each patient has then been assigned, based on a randomized blocking scheme, to receive either enalapril (n=27) or telmisartan (n=27), as described below, with the aim of grouping being to ensure that equal numbers of each are included into the two treatment groups.
On inclusion (day 0), all owners have been required to read/sign a form consenting to their pets' participation in the study. The following baseline data have been collected for each case: full physical examination (performed by one of the study investigators), fundic examination, blood pressure measurement, serum chemistry panel, urinalysis, abdominal ultrasound, UPC and urine culture. The results of screening tests, if performed within 2 weeks of inclusion in the study, may be used as baseline information. Baseline UPC has been defined as the average of two measurements, taken 2 weeks apart, prior to enrollment.
On day 0, each dog has been randomized to receive telmisartan at 1 mg/kg PO q 24 h (TEL group, n=27) or enalapril at 0.5 mg/kg PO q 12 h (ENAL group, n=27) in a double-blind manner. Randomization and dispensation of telmisartan or enalapril has been carried out at the appropriate doses. Owners have been provided with appropriate contact numbers in the event of an emergency. Enalapril is readily available and telmisartan has been provided by Boehringer Ingelheim Vetmedica Inc., St. Joseph, MO in form of the an aqueous solution, which is commercially available as Semintra®.
For dogs that are classified as AP3 (SBP≥180 mmHg; ≥200 mmHg in sighthounds), a calcium channel blocker (CCB; amlodipine, 0.1 mg/kg PO q 24 hours) has been administered contemporaneously. Co-administration of RAAS-inhibitors and CCB is common in human patients, recommended by a panel of veterinary experts and shown to be efficacious in a laboratory model of proteinuria. All dogs have been started or maintained on a commercially available diet formulated to be low in phosphorus and protein, for at least 1 month prior to enrollment. […]

The next test deals with dogs. To be noted: cited from earlier work.

With `CCOC(=O)[C@H](CCc1ccccc1)N[C@@H](C)C(=O)N1CCC[C@H]1C(=O)O` [Enalapril], in the test with dogs with hypertension, the “Average of SBP day 0” value is 163.17 mmHg, the “Average of SBP % change day 60” value was “+0.65%”, the “Average of SBP change day 60” value was “+1.00 mmHg” and the “Average of SBP % change day 90” value is on record as “+1.94%”. For the same compound, in the test on dogs with hypertension, the “Average of SBP change day 90” value is given as “+3.00 mmHg”, the “Average of SBP day 60” value came to 153.00 mmHg and the “Average of SBP day 90” value was 158.00 mmHg. In addition, the “Average of SBP day 0” value in the test on dogs with hypertension (listed as enalapril) turned out to be 163 mmHg. Also, in the test with dogs with hypertension (day 30), the “Average of SBP % change day 30” value was “+12.90%”, the “Average of SBP change day 30” value is given as “+20.00 mmHg” and the “Average of SBP day 30” value worked out at 153.80 mmHg. Moreover, in the test on dogs with hypertension (no amlodipine), the “Average of SBP % change day 120” value is reported as −20.65^1%; the “Average of SBP change day 120” value is −32.00^1 mmHg; the “course of average SBP during the period of treatment” value was “increased again on days 60 and 90”. In addition, the SBP increased result with dogs with hypertension (day 30, FIG. 2) is “more than 10%”. Further, the “Average of SBP day 30” value with dogs with hypertension (day 30, listed as enalapril) was determined as 153 mmHg.

As for `CCCc1nc2c(C)cc(-c3nc4ccccc4n3C)cc2n1Cc1ccc(-c2ccccc2C(=O)O)cc1` [Telmisartan], in the test with dogs (1 mg/kg daily dose), the “effect on blood pressure” value was “have an effect on blood pressure”. Besides, in the test on dogs (daily oral dose), the “vascular and renal excretory effects” value was “produces vasodilation, diuresis and natriuresis without influencing potassium or creatinine excretion”. In the test with dogs with hypertension, the “Average of SBP day 0” value stood at 163.57 mmHg, the “Average of SBP % change day 60” value was −18.42%, the “Average of SBP change day 60” value was −31.00 mmHg and the “Average of SBP % change day 90” value is recorded as −22.58%. In the test with dogs with hypertension, the “Average of SBP change day 90” value is −37.00 mmHg, the “Average of SBP day 60” value is on record as 138.60 mmHg and the “Average of SBP day 90” value was 132.33 mmHg. In the test on dogs with hypertension (listed as telmisartan), the “Average of SBP day 0” value came to 163 mmHg and the “Average of SBP day 90” value is 132 mmHg. In the test with dogs with hypertension (day 30), the “Average of SBP % change day 30” value is −18.88%; the “Average of SBP change day 30” value is −31.50 mmHg; the “average change of SBP, reduction compared to enalapril-treated dogs” value was “at least 30 mmHg”; the “Average of SBP day 30” value was found to be 140.86 mmHg. Besides, in the test with dogs with hypertension (no amlodipine), the “Average of SBP % change day 120” value is recorded as −42.70^2%, the “Average of SBP change day 120” value was −76.00^2 mmHg and the “course of average SBP during the period of treatment” value was “constantly lowered”. Further, in the test with dogs with hypertension (day 0 to day 90, no amlodipine, FIG. 4), the “absolute average SBP compared to enalapril treated dogs” value was “much lower”. Further, the “reduction in SBP” value in the test with dogs with hypertension (day 30, FIG. 2) is listed as ~20%. Further, the “average SBP change from baseline compared to enalapril” value in the test with dogs with hypertension (day 30, day 60 and day 90, dogs with SBP of at least 150 mmHg at day 0 which received amlodipine, FIG. 3) is reported as “greater”. In the test on dogs with hypertension (day 30 to day 90, no amlodipine, FIGS. 1 and 2), the “average change (reduction) in SBP compared to enalapril treated dogs” value is “greater”.
